Reference: PMC12189671, “Antioxidant Activity and Cytotoxicity Evaluation of New Catechol Hydrazinyl-Thiazole Derivatives as Potential Protectors in Retinal Degenerative Processes” (Antioxidants, 2025)

Experiments:
[1] = DPPH radical scavenging assay; conditions: for IC50: 30 min incubation, λ = 517 nm
Experimental: The DPPH^• radical scavenging assay is based on transferring a hydrogen atom from the tested compounds to the violet stable free radical DPPH^• (2,2-diphenyl-1-picrylhydrazyl radical), converting it into a yellow compound. The assay was conducted using tested compounds and references in concentrations ranging from 2 to 50 µM, according to our adaptation of the protocol of Brand-Williams et al.. The absorbance of the samples is given by the remaining unreacted reagent radical, and it is inversely proportional to the amount of DPPH^• neutralized. The absorbance of the samples was measured at λ = 517 nm after 30 min of incubation in the dark at room temperature. The DPPH^• radical scavenging activity of the compounds was calculated using Equation (1):(1) DPPH^• scavenging (%)=control absorbance−sample absorbance/control absorbance×100

[2] = ABTS radical cation decolorization assay; conditions: 10 min incubation, pH 7.4, λ = 734 nm
Experimental: The ABTS^•+ (2,2′-azinobis-(3-ethylbenzothiazoline-6-sulfonic acid) decolorization assay, based on the method of Re et al., was performed in the concentration range of 1 to 25 µM according to protocols previously reported by our group. The reagent was prepared in a 0.1 M potassium phosphate buffer (pH 7.4) and activated overnight with MnO2 [89]. Prior to use, the stability of the ABTS^•+ reagent was verified by checking its absorbance at λ = 734 nm over one hour, ensuring a consistent absorption of around 0.7. The mixtures were incubated for 10 min in the dark at room temperature. The absorbance of the samples is given by the remaining unreacted reagent radical, and it is inversely proportional to the amount of ABTS^•+ neutralized. The ABTS^•+ scavenging activity of compounds was calculated using Equation (2).(2) ABTS^•^+ scavenging (%)=control absorbance−sample absorbance/control absorbance×100

[3] = Indirect 1O2 scavenging assay (ICG photo-generator, DPBF probe); conditions: 10^−5 M ICG and scavenger, 785 nm laser, 100 s
Experimental: The ^1O2 scavenging assay was employed using a previously established indirect protocol from our research group. In brief, indocyanine green (ICG), from Sigma–Aldrich (St. Louis, MO, USA), was utilized to induce ^1O2 production in the presence of 5a and 5b. Ascorbic acid was used as a reference antioxidant agent, and a blank sample without ^1O2 scavengers was prepared. The reaction mixtures were exposed to a Micro Raman System R-3000 (Photonitech, Singapore, Singapore) laser diode,(λ = 785 nm, 190 mW power) for a total time of 100 s. To evaluate the ^1O2 scavenging activity of the compounds 5a,b, the degradation of 1,3-diphenylisobenzofuran (DPBF), obtained from Alfa Aesar (Haverhill, MA, USA), was measured using a V-730 spectrophotometer (Jasco International Co., Ltd., Tokyo, Japan). To determine the ^1O2 quantum yields (Φ(^1O2)) of ICG in the presence of the studied molecules, the following equation was used: Φ(^1O2) = Φ(^1O2) ^ICG × ((S × F^ICG)/(S^ICG × F)), where S represents the slope of the absorbance difference of DPBF over time, F is the absorption correction factor (F = 1 − 10^−OD), and OD is the optical density at the excitation wavelength, λ = 785 nm. The Φ(^1O2) equal to 15.0% of free ICG was used as a reference. The concentrations utilized in the experiment were 0.1 mM for DPBF and 10^−5 M for ICG and the ^1O2 scavengers. Free DPBF was used as a control.
The efficacy of compounds 5a,b against ^1O2 was assessed using an indirect approach. ICG was used as a photo-induced ^1O2 generator alongside DPBF, serving as an indirect chemical probe capable of characterizing ^1O2 release in solution. This setup allowed us to evaluate the ^1O2 scavenging capacity of the tested molecules and compare their activity to a reference compound, specifically ascorbic acid. The samples were exposed to 785 nm laser radiation, and at 10-s intervals after irradiation, their UV-Vis absorption spectra were measured and analyzed (Figure 9). Subsequently, we determined the ^1O2 quantum yields (Φ(^1O2)) of ICG in the presence of 5a,b and ascorbic acid, using the Φ(^1O2) of free ICG of 15.0% as reference.

[4] = Reducing Power (RP) assay; conditions: molar equivalents of reference compound
Description: The results of the evaluation of the electron ability transfer of the tested compound were expressed as molar equivalents of the reference compound per one mol of the tested compound using the formula: % of control activity=sample absorbance/reference absorbance×100 In the Reducing Power (RP) assay, the tested compounds reduce ferric ions from potassium ferricyanide, forming ferrocyanide, which produces a blue complex. The protocol used is an adaptation of previously reported methodologies. […] The tubes were sealed and incubated for 20 min in a water bath at 50 °C. […] Subsequently, 250 µL of the resulting solutions were mixed with 140 µL of FeCl3 solution (0.1% w/v) and 1000 µL of distilled water, and the absorbance of the resulting solutions was measured at λ = 695 nm.

[5] = tested on: rat microsomal membrane lipid peroxidation; assay: Lipid peroxidation inhibition assay (LPI), 2-thiobarbituric acid method; format: biochemical; conditions: for IC50: ascorbic acid/Fe^2+ system, 37 °C, 45 min
Experimental: Rat liver microsomes were homogenized in saline, and the resulting homogenates were centrifuged at 9000× g for 20 min at 4 °C to remove cell debris. The supernatant underwent ultracentrifugation at 110,000× g for 40 min at 4 °C. The pelleted microsomal fraction was subsequently washed with saline via another round of ultracentrifugation under identical conditions. Thereafter, the pellet was resuspended in Tris-HCl buffer (pH 7.4) to achieve a concentration equivalent to 0.5 g liver per mL and was stored until further analysis (at −80 °C). For the assay, the microsomal preparation was thermally inactivated by incubation at 90 °C for 90 s, then homogenized again and diluted to a final concentration equivalent to 4 mM fatty acid equivalents. […] All mixtures were incubated at 37 °C under air with continuous shaking. […] This was followed by heating at 90 °C for 20 min and centrifugation at 3000 rpm for 15 min. As a result of the breakdown of unsaturated fatty acids, malondialdehyde reacts with the 2-thiobarbituric acid to produce a pink compound due to the formation of a Schiff base. The extent of lipid peroxidation was measured spectrophotometrically at 535/600 nm, which is proportional to the amount of the chromogen reaction product formed between 2-thiobarbituric acid and malondialdehyde. The determinations were performed in triplicate, and the standard deviation was within ±10% of the mean value.

Compound | IC50 [1] [µM] | fold higher activity than the reference compounds in the DPPH^• scavenging assay ([1]; compared to ascorbic acid and Trolox) | IC50 [2] [µM] | ^1O2 quantum yield Φ(^1O2) of ICG in the presence of the scavenger [3] [%] | RP Eq Ascorbic Acid [4] [Eq Ascorbic Acid] | RP Eq Trolox [4] [Eq Trolox] | fold more active than Trolox in lipid peroxidation inhibition [5] | IC50 [5] [µM]
C/C=C/C=N/Nc1nc(-c2ccc(O)c(O)c2)cs1.Cl [Compound 5a, 4-(2-(2-((1E,2E)-but-2-en-1-ylidene)hydrazineyl)thiazol-4-yl)benzene-1,2-diol hydrochloride] | 9.8 | up to 5 fold | 4.67 | 11.1 | 2.55 | 2.12 | approximately 7.5 fold | 3.34
CC1=C(/C=C/C(C)=N/Nc2nc(-c3ccc(O)c(O)c3)cs2)C(C)(C)CCC1.Cl [Compound 5b, 4-(2-(2-((2E,3E)-4-(2,6,6-trimethylcyclohex-1-en-1-yl)but-3-en-2-ylidene) hydrazineyl)thiazol-4-yl)benzene-1,2-diol hydrochloride] | 18.4 | – | 5.03 | 11 | 1.90 | 1.58 | – | 12.9
